Measured values as given in article PMC3404088, “Development of a Small D-Enantiomeric Alzheimer’s Amyloid-β Binding Peptide Ligand for Future In Vivo Imaging Applications” (PLoS ONE, 2012).
Square brackets hold non-standard residues; d marks the D form. Peptide text beside a SMILES is read from it. * marks the point of attachment. 5FAM = O=C1OC2(c3ccc(O)cc3Oc3cc(O)ccc32)c2ccc(C(=O)*)cc21

What was measured:
[1] = Analysis of ACI-80 stability: N-terminal glutamine vs pyroglutamate content by HPLC/ESI-MS; type: physicochemical; conditions: aqueous solution
Experimental: In solution, N-terminal glutamine peptides such as D1 are prone to convert into N-terminal pyroglutamate species: Gln-SHYRHISPAQV → Pyr-SHYRHISPAQV. Therefore, the stability of solid ACI-80, solid ACI-80-Kϕ (ϕ: fluorescein isothiocyanate, covalently linked to the peptide via a lysine (K)) and [^127I]-ACI-80 in solution was investigated by JPT Peptide Technologies GmbH, Berlin, Germany using HPLC/ESI-MS whereby the relative content of N-terminal Gln peptide and N-terminal Pyr peptide was assessed.
An important observation during initial compound stability characterization experiments was the partial conversion of the N-terminal glutamine of [^127I]-ACI-80 into pyro-glutamate. It is known that peptides with an N-terminal glutamine are prone to conversion of this residue into a pyroglutamate. Therefore, the composition of freshly synthesized and untreated ACI-80 and ACI-80-Kϕ as well as [^127I]-ACI-80 after iodination were investigated. […] It was observed that freshly synthesized ACI-80 and ACI-80-Kϕ contained only minor fractions of pyroglutamic acid while about one third of [^127I]-ACI-80 in solution already converted into N-terminal pyroglutamate species.

Aβ1–42 fibrils = target: T1, Aβ1–42 fibrils (Homo sapiens, UniProt P05067); assay: ELISA, compound binding to Aβ1–42 fibrils; conditions: 10 µg/ml compound; optical density after pNPP incubation; value of one single experiment only
T1 construct: Aβ1–42 was dissolved in hexafluoroisopropanol (HFIP)
T1 sequence (P05067 672-713 limits assumed): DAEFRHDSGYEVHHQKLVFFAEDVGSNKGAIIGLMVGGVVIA
Experimental: Aβ1–42 peptide film was prepared from lyophilized powder (Bachem). The powder was reconstituted in HFIP to a final concentration of 1 mM, sonicated for 15 min at room temperature (RT), agitated overnight (ON), and aliquoted into non-siliconized microcentrifuge tubes (12 µl corresponding to 55 µg). The HFIP was evaporated under a stream of argon. The resulting peptide film was vacuum dried for 10 min and stored at -80°C. For direct use as peptide film, an aliquot of Aβ1–42 peptide film was reconstituted with 0.54% dimethylsulphoxide (DMSO) in phosphate buffered saline (PBS) to obtain a final concentration of 10 µg/ml and then used for the ELISA as described below. To prepare fibrils, 55 µg aliquot of peptide film was dissolved in 55 µl of 50 mM Tris-HCl, pH 7.4 and incubated at 37°C for five days. Next, the sample was centrifuged (10’000 rpm for 5 min) and the pellet was diluted in 50 mM Tris-HCl, pH 7.4.
Aβ1–42 peptide preparations were diluted in 0.05 M bicarbonate-carbonate buffer pH 9.6, to the final concentration of 10 µg/ml and coated onto ELISA plates (MaxiSorp, Nunc). After blocking (PBS; 0.05% Tween; 1% BSA), plates were incubated with 2- or 3-fold dilutions of D-compounds (starting concentration: 10 µg/ml) and incubated for 2 h at 37°C. Plates were then washed and incubated for 2 h at 37°C with the detection antibody Rabbit-a-fluorescein isothiocyanate-AP (Sigma; 1∶10’000 dilution) followed by the incubation for 2.5 h at room temperature (RT) with 1 mg/ml of phosphatase substrate (pNPP, Sigma). The absorbance signal was read at 405 nm wavelength using a Tecan plate reader (Tecan Group Lt, Männedorf, Switzerland).
ELISA plates (MaxiSorp, Nunc) were coated with anti-Aβ antibody 6E10 (Covance) at a concentration of 5 µg/ml. Either monomeric Aβ1–42 peptide film (mainly monomeric) or Aβ1–42 fibrils, which were prepared as described above, were diluted in PBS to the final concentration 10 µg/ml and mixed with 10-fold dilutions of D-peptide compounds in Eppendorf tubes (starting concentration of D-peptide compounds: 10 µg/ml). The tubes were incubated for 2 h at 37°C. Next, samples were distributed onto the ELISA plate and kept for 2 h at 37°C. Plates were washed and incubated for 2 h at 37°C with the detection antibody Rabbit-a-fluorescein isothiocyanate-AP (Sigma; 1∶10′000 dilution) following the incubation overnight (ON) at RT with 1 mg/ml of phosphatase substrate (pNPP, Sigma). The absorbance signal was read at 405 nm wavelength using the Tecan plate reader (Tecan Group Ltd, Männedorf, Switzerland).
To verify the SPR results, ELISA was employed to assay the interaction of the ACI-80 derivatives ACI-80-Kϕ, ACI-81-Kϕ, ACI-82-Kϕ, ACI-83-Kϕ, ACI-84-Kϕ, ACI-85-Kϕ, ACI-86-Kϕ, ACI-87-Kϕ, [^19F]-ACI-87-Kϕ, ACI-88-Kϕ, [^19F]-ACI-88-Kϕ, ACI-89-Kϕ, [^19F]-ACI-89-Kϕ) with Aβ1–42 fibrils and Aβ peptide film in solution containing mostly monomers and smaller oligomers (Table 4). To avoid any bias by possible conformational influences the ELISA has been carried out in two versions, once with immobilized antibody and once with immobilized Aβ1–42 as described in the methods section. Both assays yielded similar results and confirmed each other. […] Panels A and B in Figure 2 show the results for binding to Aβ1–42 fibrils and panels C and D in Figure 2 show the results for binding to freshly prepared Aβ1–42 peptide film, which contains mostly monomeric Aβ. In Table 4, the performance of the peptides is expressed relative to that of ACI-80-Kϕ.

stability in aqueous solution [1]	binding value, binding Aβ1–42 fibrils (Aβ1–42 fibrils)	SMILES
stable in aqueous solution	*0.93	CC[C@@H](C)[C@@H](NC(=O)[C@@H](Cc1c[nH]cn1)NC(=O)[C@@H](CCCNC(=N)N)NC(=O)[C@@H](Cc1ccc(O)cc1)NC(=O)[C@@H](Cc1c[nH]cn1)NC(=O)[C@@H](CO)NC(=O)[C@H](N)CCC(N)=O)C(=O)N[C@H](CO)C(=O)N1CCC[C@@H]1C(=O)N[C@H](C)C(=O)N[C@H](CCC(N)=O)C(=O)N[C@H](CCCCN)C(=O)N[C@H](CCCCNC(=O)c1ccc2c(c1)C(=O)OC21c2ccc(O)cc2Oc2cc(O)ccc21)C(=O)O [ACI-87-Kϕ] (H-[dQ][dS][dH][dY][dR][dH][dI][dS][dP][dA][dQ][dK][dK](5FAM)-OH; N-terminus and C-terminus assumed)
stable in aqueous solution	*1.78	CC[C@@H](C)[C@@H](NC(=O)[C@@H](Cc1c[nH]cn1)NC(=O)[C@@H](CCCNC(=N)N)NC(=O)[C@@H](Cc1ccc(O)cc1)NC(=O)[C@@H](Cc1c[nH]cn1)NC(=O)[C@H](N)CO)C(=O)N[C@H](CO)C(=O)N1CCC[C@@H]1C(=O)N[C@H](C)C(=O)N[C@H](CCC(N)=O)C(=O)N[C@H](CCCCN)C(=O)N[C@H](CCCCNC(=O)c1ccc2c(c1)C(=O)OC21c2ccc(O)cc2Oc2cc(O)ccc21)C(=O)O [ACI-88-Kϕ] (H-[dS][dH][dY][dR][dH][dI][dS][dP][dA][dQ][dK][dK](5FAM)-OH; N-terminus and C-terminus assumed)
stable in aqueous solution	*1.49	CC[C@@H](C)[C@@H](NC(=O)[C@@H](Cc1c[nH]cn1)NC(=O)[C@@H](CCCNC(=N)N)NC(=O)[C@@H](Cc1ccc(O)cc1)NC(=O)[C@@H](Cc1c[nH]cn1)NC(=O)[C@@H](CO)NC(=O)[C@H]1CCCN1)C(=O)N[C@H](CO)C(=O)N1CCC[C@@H]1C(=O)N[C@H](C)C(=O)N[C@H](CCC(N)=O)C(=O)N[C@H](CCCCN)C(=O)N[C@H](CCCCNC(=O)c1ccc2c(c1)C(=O)OC21c2ccc(O)cc2Oc2cc(O)ccc21)C(=O)O [ACI-89-Kϕ] (H-[dP][dS][dH][dY][dR][dH][dI][dS][dP][dA][dQ][dK][dK](5FAM)-OH; N-terminus and C-terminus assumed)
